From US7186534B1 (The Trustees of Columbia University in the City of New York, priority 1997, dated 2007)

What was measured:
Type in all cases: biochemical
human 9cRDH (h9cRDH) [1] = molecular target: T1, human 9cRDH (h9cRDH) (Homo sapiens, UniProt Q92781); experiment: Retinol isomer oxidation by recombinant human 9cRDH (substrate and cofactor specificity); conditions: for h9cRDH specific activity, retinol oxidation: substrate 10 μM, 15 min, 150–180 μg protein/assay, NAD+
T1 sequence (Q92781 1-318): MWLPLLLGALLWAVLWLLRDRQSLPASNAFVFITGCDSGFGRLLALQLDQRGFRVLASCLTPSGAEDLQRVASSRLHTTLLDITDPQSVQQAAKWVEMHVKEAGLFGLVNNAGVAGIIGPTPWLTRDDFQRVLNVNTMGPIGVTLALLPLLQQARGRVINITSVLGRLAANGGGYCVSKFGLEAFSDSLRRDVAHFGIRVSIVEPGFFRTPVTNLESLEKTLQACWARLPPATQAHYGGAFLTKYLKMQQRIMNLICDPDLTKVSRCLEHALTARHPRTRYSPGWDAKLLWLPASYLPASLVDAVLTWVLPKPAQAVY
Protocol: Enzymatic Assay of Retinol Dehydrogenase Activity. Transfected CHO cell pellets were homogenized in PBS at 4° C. using 50 strokes of a Dounce homogenizer For assay of retinol dehydrogenase activity, aliquots of unfractionated CHO cell homogenate were incubated with 10, μM retinol (either as the all-trans, 13-cis, or 9-cis isomer added in ethanol) and either 2 mM NAD+ or 2 mM NADP+ in 10 mM Hepes containing 150 mM KCl, 1 mM EDTA, and 10, μg/ml phosphotidyl choline at pH 8.0 and 37° C. for prechosen time intervals. The final assay volume was 0.6 ml. Assays were routinely carried out in amber glass tubes that had been flushed with N2 to shield the retinoids from both light and O2 All subsequent extractions and procedures were carried out in a manner that minimized exposure of the retinoids to light and O2.
Immediately following incubation, the assay mixture was denatured with an equal volume of absolute ethanol (0.6 ml), and the retinoids were extracted into 3 ml of HPLC grade hexane. Following one backwash of the hexane extract with 0.5 ml of deionized water, the hexane was evaporated to dryness under a gentle stream of N2, and the extracted retinoids were immediately redissolved in 120 μl of hexane and analyzed by normal phase HPLC (see below).
HPLC Procedures. Stereoisomers of both retinol and retinaldehyde were separated on a 4.6×250-mm Vydac 101HS54 silica column using hexane:n-propanol:1-octanol (98.9:1.0:0.1 v/v) flowing at 1.5 ml/min as the mobile phase. The running column was preceded by a silica guard column. Retinols and retinaldehydes were detected by UV absorbance at 350 nm. Retention times for all-trans-, 13-cis-, and 9-cis-retinols were established using purified compounds obtained as described above. Retention times for all-trans-, 13-cis-, and 9-cis-retinaldehyde were determined using commercial standards (Sigma). Quantities of each retinol and retinaldehyde isomer present in extracts were determined by comparisons of the integrated areas under the HPLC peaks with a standard curve constructed relating integrated peak area with known masses of each retinoid isomer. The concentrations of each retinoid isomer were determined by UV-visible spectrophotometry using published extinction coefficients for each retinol and retinaldehyde isomer (26).
(§1) Enzymatic Assays. Assays for human and mouse 9cRDH were carried out essentially as were described previously for human 9cRDH (19). For expression of mouse 9cRDH a cDNA clone obtained from a mouse liver cDNA library was employed (see below). Recombinant human or mouse 9cRDH expressed in CHO cells was incubated in an assay mixture containing 10 μM 9-cis-retinol (added in 0.02 mL ethanol) and 2 mM NAD in 10 mM Hepes, pH 8.0, containing 150 mM KCl, 1 mM EDTA, and 50 μg phosphotidyl choline for 15 min at 37° C. (final assay volume of 0.6 ml) with agitation. This assay mixture was used routinely to measure oxidation of 9-cis-retinol to 9-cis-retinaldehyde and in studies assessing oxidation of 11-cis-, 13-cis- and all-trans-retinol to their corresponding aldehydes. For some experiments, the ability of human or mouse 9cRDH to catalyze the reduction of 9-cis-, 11-cis-, 13-cis- or all-trans-retinaldehyde was assessed. To assess these reduction reactions, incubations were carried out in 100 mM sodium acetate, pH 5.0, containing 50 μg phosphotidyl choline and 2 mM NADH (or 2 mM NADPH) in a final volume of 0.6 ml for 15 min at 37° C.
(§2) Immediately following incubation of the assay, the assay mixture was denatured with an equal volume of absolute ethanol (0.6 ml), and the retinoids extracted into 2.5 ml of hexane. Following one backwash of the hexane extract with 0.5 ml of deionized water, the hexane was evaporated to dryness under a gentle stream of N2. The extracted retinoids were immediately redissolved in 120 μl of hexane and analyzed by normal phase HPLC as described below.

mouse 9cRDH (m9cRDH) [2] = molecular target: T2, mouse 9cRDH (m9cRDH) (Mus musculus, UniProt O55240); experiment: Retinol isomer oxidation by recombinant mouse 9cRDH; conditions: for m9cRDH specific activity, retinol oxidation: substrate 10 μM, 15 min, 150–180 μg protein/assay, NAD+
T2 sequence (O55240 1-318): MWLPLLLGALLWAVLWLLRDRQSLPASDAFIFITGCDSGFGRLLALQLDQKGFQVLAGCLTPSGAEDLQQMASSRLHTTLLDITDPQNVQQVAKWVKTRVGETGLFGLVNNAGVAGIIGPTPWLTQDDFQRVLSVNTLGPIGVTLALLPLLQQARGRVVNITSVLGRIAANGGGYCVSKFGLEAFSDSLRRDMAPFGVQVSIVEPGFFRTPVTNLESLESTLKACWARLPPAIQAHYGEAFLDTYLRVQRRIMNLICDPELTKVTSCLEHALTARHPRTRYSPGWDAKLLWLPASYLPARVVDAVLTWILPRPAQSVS
Protocol: as §1, §2

[3] = molecular target: T3, human 9-cis retinol dehydrogenase (9cRDH) (Homo sapiens, UniProt Q92781); experiment: Inhibition of recombinant human 9cRDH activity (9-cis-retinol oxidation, CHO cell homogenate, HPLC)
T3 sequence (Q92781 1-318): T1 sequence (Q92781 1-318)

mouse 9cRDH [4] = molecular target: T4, mouse 9cRDH (Mus musculus, UniProt O55240); experiment: Inhibition of recombinant mouse 9cRDH activity (9-cis-retinol oxidation, CHO cell homogenate, HPLC)
T4 sequence (O55240 1-318): T2 sequence (O55240 1-318)

human 9cRDH = molecular target: T5, human 9cRDH (Homo sapiens, UniProt Q92781); experiment: Hydroxysteroid oxidation/reduction by human 9cRDH (TLC); conditions: 37° C., 1.5 h; TLC detection limit approximately 3 pmol/min/mg protein
T5 sequence (Q92781 1-318): T1 sequence (Q92781 1-318)
Protocol: (§3) To investigate whether human or mouse 9cRDH will catalyze oxidations or reductions of 3α-hydroxy-, 11β-hydroxy- or 17β-hydroxysteroids, these steroids were incubated at 37° C. for 1.5 h in the assay media described above for assessing oxidation/reduction of 9-cis-retinol/9-cis-retinaldehyde. The Hepes NAD^+-containing assay buffer described above was employed to assess hydroxysteroid oxidation and to assess hydroxysteroid reduction the acetate buffer containing NADH (or NADPH) assay buffer (see above) was employed. Immediately following incubation, the steroids were extracted as described above for retinoids. The final hexane extract was evaporated to near dryness and this was spotted onto a silica high performance TLC plate (Whatman Inc., Clifton, N.J.) and developed in hexane/diethyl ether/acetic acid (70:30:1, v/v) or ethyl acetate/chloroform (25:75, v/v). Steroids were visualized by charring after treatment of the TLC plates with an areosol of 10% (v/v) H2SO4 in methanol.
(§4) Biswas and Russell (32) have reported that rat liver all-trans-retinol dehydrogenase type I also uses several 3α-hydroxy- and 17β-hydroxysteroids as substrates. Chai et al. (18) also reported that hydroxysteroids are substrates for mouse liver cis-retinol dehydrogenase. Since human 9cRDH is approximately 50% identical to the rat liver enzymes and shares approximately 63% homology to mouse liver cis-retinol dehydrogenase, next investigated was whether these steroids might also be substrates for 9cRDH. To test this possibility it was determined whether human or mouse 9cRDH would catalyze oxidation of 5α-androstan-3α, 17β-diol, androsterone, testosterone or dihydrotestosterone to corresponding ketone products. Also investigated was whether human and/or mouse 9cRDH could catalyze reduction of the corresponding ketones. […] It is estimate, based on the lower limits for hydroxysteroid detection by TLC, that it would be possible to detect rates of hydroxysteroid oxidation as low as approximately 3 pmol/min/mg protein. This rate of hydroxysteroid oxidation is at least 2-orders of magnitude lower than Vmax values reported by Biswas and Russell (32) and Chai et al. (18) for oxidation of hydroxysteroids in their studies of enzymes that are able to oxidize both retinol and hydroxysteroids.

mouse 9cRDH [5] = molecular target: T4, mouse 9cRDH; experiment: Hydroxysteroid oxidation/reduction by mouse 9cRDH (TLC); conditions: 37° C., 1.5 h; TLC detection limit approximately 3 pmol/min/mg protein
Protocol: as §3, §4

human 9cRDH (h9cRDH) [6] = molecular target: T1, human 9cRDH (h9cRDH); experiment: Retinaldehyde isomer reduction by recombinant human 9cRDH; conditions: substrate 10 μM, 15 min, 150–180 μg protein/assay, NADH, pH 5.0
Protocol: as §1, §2

mouse 9cRDH (m9cRDH) [7] = molecular target: T2, mouse 9cRDH (m9cRDH); experiment: Retinaldehyde isomer reduction by recombinant mouse 9cRDH; conditions: substrate 10 μM, 15 min, 150–180 μg protein/assay, NADH, pH 5.0
Protocol: as §1, §2

[8] = equimolar concentrations, any substrate

For CC1=C(/C=C/C(C)=C/C=C/C(C)=C\CO)C(C)(C)CCC1 [13-cis-retinol], the “rate of oxidation relative to that observed for 9-cis-retinol” value (human 9cRDH (h9cRDH) [1]; first series, 2 mM NAD+, 10 μM retinol) was 10%, the “h9cRDH specific activity, retinol oxidation” value (human 9cRDH (h9cRDH) [1]) was 0.3 pmol/min/mg protein and the “m9cRDH specific activity, retinol oxidation” value (mouse 9cRDH (m9cRDH) [2]) was 2.0 pmol/min/mg protein.
With CC1=C(/C=C/C(C)=C\C=C\C(C)=C\CO)C(C)(C)CCC1 [9-cis-retinol] the “oxidation to the corresponding retinaldehyde by transfected CHO cell homogenate (in words)” value (human 9cRDH (h9cRDH) [1]; 2 mM NAD+) was “avidly oxidized”, the “share of the added retinol oxidized to retinaldehyde by CHO cell homogenate” value (human 9cRDH (h9cRDH) [1]; in assay concentration 10 μM) was “Over 60%” and the “h9cRDH specific activity, retinol oxidation” value (human 9cRDH (h9cRDH) [1]) was 367 pmol/min/mg protein. For the same molecule, the “rate of oxidation by mouse enzyme as multiple of the rate of 11-cis-retinol oxidation” value (mouse 9cRDH (m9cRDH) [2]) was 2 times and the “m9cRDH specific activity, retinol oxidation” value (mouse 9cRDH (m9cRDH) [2]) was 328 pmol/min/mg protein.
In the case of C[C@]12CCC(=O)C[C@@H]1CC[C@@H]1[C@@H]2CC[C@]2(C)[C@@H](O)CC[C@@H]12 [5α-androstan-17βol-3one], the “inhibition of human 9cRDH activity by hydroxysteroids” value [3] is reported as “none of these hydroxysteroids inhibited”, the “inhibition of mouse 9cRDH activity by hydroxysteroids” value (mouse 9cRDH [4]) is reported as “none of these hydroxysteroids inhibited” and the “catalysis by human 9cRDH of hydroxysteroid oxidation to ketone products (or reduction of the corresponding ketones)” value (human 9cRDH) is reported as “Neither human nor mouse 9cRDH were found to catalyze”. The “catalysis by mouse 9cRDH of hydroxysteroid oxidation to ketone products (or reduction of the corresponding ketones)” value (mouse 9cRDH [5]) was “Neither human nor mouse 9cRDH were found to catalyze”.
CC1=C(/C=C/C(C)=C/C=C\C(C)=C\CO)C(C)(C)CCC1 [11-cis-retinol] was tested, and the “h9cRDH specific activity, retinol oxidation” value (human 9cRDH (h9cRDH) [1]) was 442 pmol/min/mg protein and the “m9cRDH specific activity, retinol oxidation” value (mouse 9cRDH (m9cRDH) [2]) was 152 pmol/min/mg protein.
With NC(=O)c1ccc[n+]([C@@H]2O[C@H](COP(=O)([O-])OP(=O)(O)OC[C@H]3O[C@@H](n4cnc5c(N)ncnc54)[C@H](OP(=O)(O)O)[C@@H]3O)[C@@H](O)[C@H]2O)c1 [NADP+] the “cofactor activity relative to NAD+ for 9-cis-retinol oxidation” value (human 9cRDH (h9cRDH) [1]; both at 2 mM) was 8%, the “reaction rate supported relative to NAD+, human 9cRDH retinol oxidation” value (human 9cRDH (h9cRDH) [1]; [8]) was at most 10% and the “reaction rate supported relative to NAD+, mouse 9cRDH retinol oxidation” value (mouse 9cRDH (m9cRDH) [2]; [8]) was at most 10%.
In the case of CC1=C(/C=C/C(C)=C/C=C/C(C)=C\C=O)C(C)(C)CCC1 [13-cis-retinaldehyde], the “h9cRDH specific activity, retinaldehyde reduction” value (human 9cRDH (h9cRDH) [6]) is reported as 744 pmol/min/mg protein and the “m9cRDH specific activity, retinaldehyde reduction” value (mouse 9cRDH (m9cRDH) [7]) is reported as 748 pmol/min/mg protein.
With CC1=C(/C=C/C(C)=C/C=C/C(C)=C/C=O)C(C)(C)CCC1 [all-trans-retinaldehyde] the “h9cRDH specific activity, retinaldehyde reduction” value (human 9cRDH (h9cRDH) [6]) was 1.1 pmol/min/mg protein and the “m9cRDH specific activity, retinaldehyde reduction” value (mouse 9cRDH (m9cRDH) [7]) was 1.3 pmol/min/mg protein.
